According to US12527782B2, “Use of hexokinase 2/mitochondria-detaching compounds for treating hexokinase-2 (HK2)-expressing cancers” (Vidac Pharma Ltd., priority 2016, dated 2026):
Values joined by “and” are separate entries in the source; they are usually repeats but may differ in a detail not shown here. Equal values may be shown once.

Columns and labels:
[1] = system: Leukemia (AML) LEXFAM THP-1; assay: CFA, LEXFAM THP-1; type: cell-based, human; settings: Cell line/CFA
Procedure: (§1) CFA was performed by Charles River Laboratories (Freiburg, Germany) in 96-well plate format according to a modified two-layer soft agar assay. The origin of the tumor xenografts has been described (Fiebig et al. 1989, incorporated herein by reference). The list of tumors used in this study is detailed in Table 1.

[2] = system: Breast MAXF 1322; assay: CFA, MAXF 1322; type: cell-based, human; settings: PDX/CFA
Procedure: as §1

[3] = system: Breast MAXF 401; assay: CFA, MAXF 401; type: cell-based, human; settings: PDX/CFA
Procedure: as §1

[4] = system: AK lesions; assay: Phase 2a in subjects with actinic keratosis, efficacy (lesion count); type: in vivo, human
Procedure: (§2) The Phase 2 clinical trial was a multiple-center randomized, double-blind, placebo-controlled, parallel-cohorts study to evaluate the efficacy, safety, tolerability, and pharmacokinetics of once-daily application of topical Formula C ointment (QD 200 mg) for 28 days in subjects with actinic keratosis. Subjects were followed for one or two months after they completed treatment (through day 56 or day 84). The primary and exploratory efficacy endpoints for the study were reduction in the number of lesions on days 56 and 84, respectively. Subjects were randomly assigned in a double-blind fashion to one of three parallel treatment cohorts (5%, or 10% Formula C, or placebo) at a ratio of 1:1:1. To qualify for the study, subjects aged 18 (inclusive) or older must have had 4-8 discrete Grade 1 or 2 AK lesions within a 25-centimeter squared area of the skin of their scalp or face. The study enrolled 93 subjects in the US and Israel.

[5] = Phase 2a in subjects with actinic keratosis, safety; type: in vivo, human
Procedure: as §2

CC/C=C\CC1C(=O)CCC1CC(=O)Oc1cccc2cccnc12 (stereo not drawn) [Formula C]
IC50 [1]: 2180 nM | IC50 [2]: 1550 nM | IC50 [3]: 4.22 µM | mean reduction in total lesion count from baseline on Day 56 ([4]; ITT-face subgroup, 10% ointment, adjusted to age and gender, P=0.023 vs Placebo): 38.8%±36.4% | median reduction in total lesion count ([4]; PP-face subgroup, 10% ointment): 50.0% | mean reduction in total lesion count from baseline on Day 56 ([4]; full ITT population (face or scalp), 10% ointment QD 200 mg 28 days, adjusted by site, age, gender, treatment field location): 32.1%±34.1% | median reduction in total lesion count from baseline on Day 56 ([4]; full Per Protocol (PP) population, 10% ointment): 25.0% | serious adverse events (deemed unrelated) ([5]; 5% group): 1 elective surgery | treatment-emergent AEs deemed related to the study drug ([5]; 5% group, listed as VDA-1102): 1 mild dyspepsia and 1 mild hypopigmentation | serious adverse events (deemed unrelated) ([5]; 10% group): 1 acute pneumonia | clinically significant changes at application sites (Local Skin Reactions), vital signs, physical examinations, clinical laboratory results, ECGs ([5]; any subject, any time point): No clinically significant changes | safety signals ([5]; subjects with AK, 5% or 10% ointment QD 28 days): No safety signals
